# Source: patent US5688793A, “Pyridazino[4',5':3,4]pyrrolo-[2,1-a]-isoquinolines and the use thereof for preparing pharmaceutical preparations” (Boehringer Ingelheim GmbH, priority 1993, dated 1997)
# Test system: RBL-2H3-cells
# Assay: Antigen (DNP-BSA)-induced activation of sensitised RBL-2H3 cells, fluorometric cytoplasmic calcium measurement
# Assay type: cell-based
# Details: Rattus norvegicus, read-out: inhibition of the antigen-induced cell activation
# Procedure: Individual RBL-2H3-cells (a turnout cell line related to the mast cells) adhering to glass slides are used.
# The cultivation and attachment of the RBL-2H3-cells are carried out by the method described by HIDE and BEAVEN (1991). In order to sensitise the adhesive RBL-2H3-cells the cells are incubated for 2 hours at ambient temperature with a 1:2000 diluted commercial gammaglobulin E-solution against a dinitrophenol-bovine serum albumin complex (DNP-BSA-antigen). The cells are then washed. By the addition of 0.1 ml of DNP-BSA-solution (10 μg/ml) there is a massive immunological cell activation which is mediated by a cytoplasmic Ca^2+ -overload. The fluorometric calcium measurement in the cytoplasm of individual adhering RBL-2H3-cells is carried out analogously to the method described by KUDO and OGURA (1986) for neuronal cells, which is also explained hereinbefore in this specification.
# The comparison used in these investigations is (10 μM) chromoglycate which brings about an approximately 50% inhibition of the antigen-induced cell activation.
row,Compound,inhibition at 10 µM [%]
1,O=C(O)c1cc(=O)c2c(OCC(O)COc3cccc4oc(C(=O)O)cc(=O)c34)cccc2o1 [chromoglycate],~50

# Test system: unselective cation channels (UCC)
# Assay: Thapsigargin-stimulated calcium entry through unselective cation channels in fura-2-charged RBL-hm 1 cells
# Assay type: cell-based, rat
# Details: 10^-5 M test substance, Thapsigargin (0.1 μM) stimulation
# Procedure: For screening purposes, fura-2-charged adhesive RBL-hm 1 cells are stimulated with […] Thapsigargin in a Ca^2+ -free incubation medium. After 4 minutes, extracellular Ca^2+ is restored to a concentration of 1.5 mM and, using the fura-2-fluorescence, the excessive increase in the cytoplasmic Ca^2+ -concentration caused by a massive transmembranal Ca^2+ -entry through unselective cation channels is recorded.
# The fluorometric calcium measurement in the cytoplasm of individual adhering RBL-hm1 cells is carried out analogously to the method described by KUDO and OGURA (1986) for neuronal cells. An AXIOVERT 35 fluorescence microscope made by ZEISS is used in conjunction with an imaging system made by HAMAMATSU, consisting of the ICMS-image processing system, residual light camera with control unit and image intensifier DVS 3000.
# The kinetics of the cytoplasmic Ca^2+ -concentration is recorded continuously as a concentration/time curve after the cell activation stimulated by Thapsigargin (0.1 μM). […] The area under these curves (area under the curve=AUC) is integrated and recorded as a measurement of cell activation. The inhibitory potency of the UCC-blockers tested is determined using the following equation: [formula] […]
# AUC control=area under the curve which is recorded only after the addition of the stimulant.
# The percentage inhibition of UCC after Thapsigargin stimulation (0.1 μM Thapsigargin) in RBL-hm 1 cells is given. […]
row,Compound,"% H (10^-5 M), percentage inhibition of the calcium entry through unselective cation channels [%]"
1,COc1cc2c(cc1OC)-c1c3cnnc(SCc4ccc(Br)cc4)c3cn1CC2,62.9
2,COc1cc2c(cc1OC)-c1c3cnnc(SCc4ccccc4)c3cn1CC2,97.5
3,"COc1cc2c(cc1OC)-c1c3cnnc(SC)c3cn1CC2 [CH3 (X:S), reference compound]",46.4
4,COc1cc2c(cc1OC)-c1c3cnnc(SCc4ccc(F)cc4)c3cn1CC2,94.6
5,COc1cc2c(cc1OC)-c1c3cnnc(SCc4cccc(Cl)c4)c3cn1CC2,81.9
6,"COc1cc2c(cc1OC)-c1c3cnnc(OC)c3cn1CC2 [CH3 (X:O), 5,6-Dihydro-2,3,9-trimethoxypyridazino[4',5':3,4]-pyrrolo[2,1-a]isoquinoline]",62.5
7,COc1cc2c(cc1OC)-c1c3cnnc(SCCCCOc4ccccc4F)c3cn1CC2,61.6
